These results are taken from US7453009B2, “Hydroxybiphenyl carboxylic acids and derivatives, method for producing the same and their use” (Sanofi-Aventis Deutschland GmbH, priority 2004, dated 2008).

As usually defined, the IC50 is the point on the concentration scale where inhibition reaches its midpoint.

The structures appear in SMILES notation.

The test addresses T1, recombinant hPTP1B (phosphotyrosine phosphatase 1B) (Homo sapiens, UniProt P18031).
T1 construct: but without the carboxy-terminal hydrophobic region (corresponding to 1-299 aa); made in house; host or cells: Sf9 insect cells (baculovirus, Bac-to-Bac, pFASTBAC)
T1 sequence (P18031 1-299): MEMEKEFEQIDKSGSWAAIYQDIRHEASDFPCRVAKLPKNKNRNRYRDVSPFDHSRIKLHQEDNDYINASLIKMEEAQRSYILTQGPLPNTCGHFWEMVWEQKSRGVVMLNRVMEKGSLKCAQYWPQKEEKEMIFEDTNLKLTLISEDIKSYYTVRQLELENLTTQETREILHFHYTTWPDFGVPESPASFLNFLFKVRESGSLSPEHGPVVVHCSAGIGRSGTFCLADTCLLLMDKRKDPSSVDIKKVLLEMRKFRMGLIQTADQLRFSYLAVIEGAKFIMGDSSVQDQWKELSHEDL
The test is described as follows: Enzymatic test for inhibition of a phosphatase (phosphopeptide dephosphorylation / p-nitrophenyl phosphate cleavage). It counts as biochemical. The following applies: Table 3 Biological activity; inhibition of PTP1B; table does not say which substrate format (A phosphopeptide or B pNPP). On the procedure:
Enzymatic Test Systems for Detecting Inhibition of a Phosphatase
The compounds of the formula I were tested for their phosphatase-inhibiting effect in an in vitro assay. The enzyme preparation and the performance of the assay was carried out as follows.
A) Cell Culture: • Sf9 cells (=Spodoptera frugiperda cell type; obtainable from invitrogen) are cultured in Grace's supplemented medium (Gibco-BRL) with 10% heat-inactivated fetal calf serum (Gibco-BRL) in spinner flasks at 28° C. in accordance with the protocol of Summers and Smith (A Manual for Methods for Baculovirus Vectors and Insect Culture Procedures [Bulletin No. 15555]. Texas A & M University, Texas Agricultural Experiment Station, College Station, Tex., 1987). • Construction of recombinant Baculovirus transfer vectors: cDNA coding for the regulatory and catalytic domains of human PTP1B, but without the carboxy-terminal hydrophobic region (corresponding to 1-299 aa) was obtained by polymerase chain reaction via primers with attached cloning sites and suitable cDNA templates (obtainable for example from invitrogen) and then cloned into baculovirus expression vectors (Amersham Pharmacia Biotech.). The recombinant baculoviruses were prepared with the aid of the Bac-to-Bac baculovirus expression system (obtainable from Gibco-BRL). The gene was cloned into the pFASTBAC donor plasmid (obtainable from Life Technologies). The resulting plasmid was transformed into competent DH10BAC Escherichia coli cells (obtainable from Life Technologies). After transposition and antibiotic selection, the recombinant plasmid DNA was isolated from selected E. coli colonies and then used for the transfection of Sf9 insect cells. The virus particle in the supernatant medium was amplified three times up to a viral stock volume of 500 ml.
B) Production of Recombinant Protein: • Baculovirus infection of a 500 ml spinner culture of Sf9 cells was essentially carried out as described by Summers and Smith (see above). Sf9 cells at a density of 1-3×10^6 cells/ml were pelleted by centrifugation at 300 g for 5 min, the supernatant was removed, and the cells were resuspended in a density of 1×10^7 cells/ml in a suitable recombinant viral stock (MOI 10). After careful shaking at room temperature for 1.5 h, fresh medium was added in order to achieve a cell density of 1×10^6 cells/ml. The cells were then cultured in the suspension at 28° C. for suitable periods after postinfection.
C) Cellular Fractionation and Complete Cell Extracts of Infected Sf9 Cells: • After the postinfection, aliquots were subjected to an analysis of protein expression by SDS-PAGE and Western blot analysis. The cellular fractionation was carried out as described (Cromlish, W. and Kennedy, B. Biochem. Pharmacol. 52: 1777-1785, 1996). Complete cell extracts were obtained from 1 ml aliquots of the infected Sf9 cells after certain times postinfection. The pelleted cells (300×g, 5 min) were washed once in phosphate-buffered saline (4° C.), resuspended in 50 μl of water and disrupted by repeated freezing/thawing. Protein concentrations were determined with the aid of the Bradford method and bovine serum albumin as standard.
A) Dephosphorylation of a Phosphopeptide: • This assay is based on the release of phosphate from a consensus substrate peptide which is detected in the nanomolar concentration range by the malachite green/ammonium molybdate method (Lanzetta, P. A., Alvarez, L. J., Reinach, P. S., Candia, O. A. Anal Biochem. 100: 95-97, 1979) adapted for the microtiter plate format. The dodecatrisphosphopeptide TRDIYETDYYRK (Biotrend, Cologne) corresponds to amino acids 1142-1153 of the catalytic domain of the insulin receptor and is (auto)phosphorylated on tyrosine residues 1146, 1150 and 1151. […]
As for `CCCCC(=O)N(Cc1ccc(-c2ccc(O)c(C(=O)O)c2)cc1)CC1CC1` [Example 8, 4′-[(Cyclopropylmethylpentanoylamino)methyl]-4-hydroxybiphenyl-3-carboxylic acid], the IC50 was found to be 1900 nM. As for `O=C(O)c1cc(-c2ccc(CN(Cc3ccc(F)cc3)C(=O)/C=C/c3ccccc3)cc2)ccc1O` [Example 18, 4′-{[(4-Fluorobenzyl)-(3-phenylacryloyl)amino]methyl}-4-hydroxybiphenyl-3-carboxylic acid], the figure is 1450 nM; as for `COc1cccc(C(=O)N(Cc2ccc(C)cc2)Cc2ccc(-c3ccc(O)c(C(=O)O)c3)cc2)c1` [Example 13, 4-Hydroxy-4′-{[(3-methoxybenzoyl)-(4-methylbenzyl)amino]methyl}-biphenyl-3-carboxylic acid], 1700 nM; as for `O=C(O)c1cc(-c2ccc(CN(CC3CC3)C(=O)c3ccc4c(c3)OCO4)cc2)ccc1O` [Example 14, 4′-{[(Benzo[1,3]dioxole-5-carbonyl)cyclopropylmethylamino]methyl}-4-hydroxybiphenyl-3-carboxylic acid], 1800 nM. Next, `O=C(O)c1cc(-c2ccc(CN(CC3CC3)C(=O)C3CCCCC3)cc2)ccc1O` [Example 5, 4′-[(Cyclohexanecarbonylcyclopropylmethylamino)methyl]-4-hydroxybiphenyl-3-carboxylic acid]: 1600 nM. As for `O=C(O)c1cc(-c2ccc(CN(Cc3ccc(F)cc3)C(=O)c3ccc(Br)cc3)cc2)ccc1O` [Example 23, 4′-{[(4-Bromobenzoyl)-(4-fluorobenzyl)amino]methyl}-4-hydroxybiphenyl-3-carboxylic acid], the 50% inhibitory concentration (IC50) came to 500 nM.

With `COc1cccc(C(=O)N(Cc2ccc(-c3ccc(O)c(C(=O)O)c3)cc2)Cc2ccccc2OC)c1` [Example 4, 4-Hydroxy-4′-{[(3-methoxybenzoyl)-(2-methoxybenzyl)amino]-methyl}biphenyl-3-carboxylic acid], the IC50 was determined as 1400 nM. Regarding `Cc1ccc(CN(Cc2ccc(-c3ccc(O)c(C(=O)O)c3)cc2)C(=O)C2CCCCC2)cc1` [Example 10, 4′-{[Cyclohexanecarbonyl-(4-methylbenzyl)amino]methyl}-4-hydroxybiphenyl-3-carboxylic acid], the IC50 was 1600 nM. Next, `Cc1ccc(CN(Cc2ccc(-c3ccc(O)c(C(=O)O)c3)cc2)C(=O)c2ccc3c(c2)OCO3)cc1` [Example 19, 4′-{[(Benzo[1,3]dioxole-5-carbonyl)-(4-methylbenzyl)amino]methyl}-4-hydroxy-biphenyl-3-carboxylic acid]: 1280 nM; `COc1ccccc1CN(Cc1ccc(-c2ccc(O)c(C(=O)O)c2)cc1)C(=O)c1ccc(Br)cc1` [Example 1, 4′-{[(4-Bromobenzoyl)-(2-methoxybenzyl)amino]methyl}-4-hydroxybiphenyl-3-carboxylic acid]: 1200 nM; `COc1ccc(CN(Cc2ccc(-c3ccc(O)c(C(=O)O)c3)cc2)C(=O)c2ccc3c(c2)OCO3)cc1` [Example 2, 4′-{[(Benzo[1,3]dioxole-5-carbonyl)-(4-methoxybenzyl)amino]-methyl}-4-hydroxybiphenyl-3-carboxylic acid]: 1200 nM. Take `CCCCC(=O)N(Cc1ccc(OC)cc1)Cc1ccc(-c2ccc(O)c(C(=O)O)c2)cc1` [Example 24, 4-Hydroxy-4′-{[(4-methoxybenzyl)pentanoylamino]methyl}-biphenyl-3-carboxylic acid]: the IC50 was 600 nM. Next, `O=C(O)c1cc(-c2ccc(CN(Cc3ccc(F)cc3)C(=O)c3ccc4c(c3)OCO4)cc2)ccc1O` [Example 16, 4′-{[(Benzo[1,3]dioxole-5-carbonyl)-(4-fluorobenzyl)amino]methyl}-4-hydroxy-biphenyl-3-carboxylic acid]: 1900 nM. For `COc1cccc(C(=O)N(Cc2ccccc2)Cc2ccc(-c3ccc(O)c(C(=O)O)c3)cc2)c1` [Example 12, 4′-{[Benzyl-(3-methoxybenzoyl)amino]methyl}-4-hydroxybiphenyl-3-carboxylic acid], the IC50 was found to be 1600 nM.

For `CCCCCN(Cc1ccc(-c2ccc(O)c(C(=O)O)c2)cc1)C(=O)c1ccc2c(c1)OCO2` [Example 15, 4′-{[(Benzo[1,3]dioxole-5-carbonyl)pentylamino]methyl}-4-hydroxybiphenyl-3-carboxylic acid], the IC50 turned out to be 1500 nM. `COc1ccccc1CN(Cc1ccc(-c2ccc(O)c(C(=O)O)c2)cc1)C(=O)C1CCCCC1` [Example 6, 4′-{[Cyclohexanecarbonyl-(2-methoxybenzyl)amino]methyl}-4-hydroxybiphenyl-3-carboxylic acid]: the half-inhibitory concentration (IC50) amounted to 1300 nM. As for `O=C(O)c1cc(-c2ccc(CN(CCc3ccccc3)C(=O)c3ccc4c(c3)OCO4)cc2)ccc1O` [Example 11, 4′-{[(Benzo[1,3]dioxole-5-carbonyl)phenethylamino]methyl}-4-hydroxybiphenyl-3-carboxylic acid], the figure is 1600 nM. Next, `O=C(O)c1cc(-c2ccc(CN(Cc3ccccc3)C(=O)c3ccco3)cc2)ccc1O` [Example 22, 4′-{[Benzyl(furan-2-carbonyl)amino]methyl}-4-hydroxybiphenyl-3-carboxylic acid]: 1300 nM.

Regarding `COc1cccc(C(=O)N(Cc2ccc(F)cc2)Cc2ccc(-c3ccc(O)c(C(=O)O)c3)cc2)c1` [Example 17, 4′-{[(4-Fluorobenzyl)-(3-methoxybenzoyl)amino]methyl}-4-hydroxybiphenyl-3-carboxylic acid], the IC50 was determined as 1600 nM.

For `O=C(O)c1cc(-c2ccc(CN(Cc3ccccc3)C(=O)c3ccc(Br)cc3)cc2)ccc1O` [Example 21, 4′-{[Benzyl-(4-bromobenzoyl)amino]methyl}-4-hydroxybiphenyl-3-carboxylic acid], the IC50 was 600 nM. In the case of `Cc1ccc(CN(Cc2ccc(-c3ccc(O)c(C(=O)O)c3)cc2)C(=O)c2ccc(Br)cc2)cc1` [Example 7, 4′-{[(4-Bromobenzoyl)-(4-methylbenzyl)amino]methyl}-4-hydroxybiphenyl-3-carboxylic acid], the IC50 was found to be 1000 nM. Next, `O=C(O)c1cc(-c2ccc(CN(Cc3ccccc3)C(=O)c3ccc4c(c3)OCO4)cc2)ccc1O` [Example 3, 4′-{[(Benzo[1,3]dioxole-5-carbonyl)benzylamino]methyl}-4-hydroxybiphenyl-3-carboxylic acid]: 1500 nM. In the case of `O=C(O)c1cc(-c2ccc(CN(C(=O)c3ccc4c(c3)OCO4)C3CCCC3)cc2)ccc1O` [Example 20, 4′-{[(Benzo[1,3]dioxole-5-carbonyl)cyclopentylamino]methyl}-4-hydroxy-biphenyl-3-carboxylic acid], the IC50 was 1800 nM.
